In US7863465B2, “Antifungal agents” (Merck Sharp & Dohme Corp., priority 2006, dated 2011):

What follows are compounds tested against T1, glucan synthase (GS) prepared from Candida albicans MY1055 (Candida albicans, UniProt O13428) (assay: Glucan synthase inhibition (polymerization assay, 96-well, 3H-UDPG incorporation)). Conditions: glucan synthase from C. albicans MY1055.
T1 construct: Extraction of GS activity from membranes was performed at a protein concentration of 5 mg/mL in extraction buffer; endogenous in cells; host or cells: Candida albicans MY1055 (membranes, detergent extract, product entrapment)
Type: biochemical
Description: The in vitro evaluation of glucan synthase inhibitory activity of compounds was measured in a polymerization assay in 96-well format. Each well contained 100 μL of ^3H-UDPG at 0.5 mM (6000 to 8000 dpm/nmol), 50 mM HEPES pH 7.5 (Sigma), 10% w/v glycerol (Sigma), 1.5 mg/mL bovine serum albumin (Sigma A 9647. Lot 44H0190), 25 mM KF (Fisher), 1 mM EDTA (Gibco Ultrapure), 25 μM GTP-γ-S, enzyme sufficient to give 3 to 6 nmoles incorporation during the 60 min incubation at 22° C., and test compound added from wells in 3-fold serial dilutions in 100% DMSO (1 μL/well). The reaction was stopped by the addition of 100 μL of 20% trichloroacetic acid. Plates were chilled for a minimum of 10 min, and precipitated glucan collected by filtration on GF/C plates (Packard Unifilter®-96), washed with 5 cycles of water (about 1 mL/well each cycle) using a Packard Filtermate Harvester. 40 μL/well scintillation fluid (Packard Ultima Gold TM-XR) was added and the sealed plates counted in a Wallac Beta counter in top-counting mode at an efficiency of approximately 40%.
Stock solutions were stored at 10 mg/mL in DMSO at −20° C. For each new enzyme preparation, the initial titration performed started at 1 mg/mL, which was prepared by making a 10-fold dilution in DMSO (5 μL to 50 μL). 40 μL of this stock was placed in column 12 of a round-bottomed 96-well microtiter plate. 40 μL DMSO was added to columns 1 to 11 in the same row and ten 3-fold serial dilutions performed, by transferring 20 μL from column 12 to column 11 etc., with 4 mixings before each transfer. No test compound was transferred to from column 2 to column 1. Duplicate aliquots of 1 μL of all 12 dilutions were then transferred to the side walls of a 96-well Bioblock 1.1 mL plate (Fisherbrand) to create two rows.
The results were tabulated and a standard plate background was subtracted and the net count transpose-pasted into a Prism file, with final compound concentrations used in ng/mL. Graphs were created in Prism software, using the average of two determinations, and using Prism's curve fitting program (sigmoidal dose response non-linear regression).
Routine analysis was performed with glucan synthase (GS) prepared from Candida albicans MY1055 by the following procedure: MY1055 was grown in 10 liters YPD medium (10 g yeast extract, 20 g tryptone, 20 g glucose per liter) with vigorous shaking at 30° C., to early stationary phase. Cells were harvested by centrifugation, the pellet was washed and frozen at −70° C. until breakage. Thawed pellets were shaken with an equal volume of breakage buffer (50 mM HEPES pH 7.4, 10% glycerol, 1 mM EDTA, 1 mM PMSF, 1 mM DTT) and 4 times their weight of 0.5 mm acid washed glass beads for 2 hours at 4° C. Extent of breakage was assessed visually at 40× magnification. For C. parapsilosis strains, shaking was extended to 3 hours to maximize breakage. After low speed centrifugation to remove cell debris, the supernatant was centrifuged at 100,000×g for 60 min. to separate membranes plus ribosomes from cytoplasmic components. Membranes were further washed two additional times with breakage buffer using the same centrifugation conditions and finally suspended in breakage buffer at 25 to 30 mg/mL protein (Biorad) for storage at −70° C. Extraction of GS activity from membranes was performed at a protein concentration of 5 mg/mL in extraction buffer (50 mM NaPO4 pH 7.5, 0.1 M KCl, 0.1M Na citrate, 20% glycerol, 5 μM GTP-γ-S, 1 mM DTT, 1 mM PMSF, 3 μg/mL pepstatin) plus 0.25% W1 by gentle mixing at 4° C. for 60 min, followed by centrifugation at 100,000×g for 60 min. After centrifugation, clear supernatant was removed from a pellet consisting of a hard layer usually with small amounts of gelatinous unextracted membranes above it. […]

T1 sequence (O13428 1-1897): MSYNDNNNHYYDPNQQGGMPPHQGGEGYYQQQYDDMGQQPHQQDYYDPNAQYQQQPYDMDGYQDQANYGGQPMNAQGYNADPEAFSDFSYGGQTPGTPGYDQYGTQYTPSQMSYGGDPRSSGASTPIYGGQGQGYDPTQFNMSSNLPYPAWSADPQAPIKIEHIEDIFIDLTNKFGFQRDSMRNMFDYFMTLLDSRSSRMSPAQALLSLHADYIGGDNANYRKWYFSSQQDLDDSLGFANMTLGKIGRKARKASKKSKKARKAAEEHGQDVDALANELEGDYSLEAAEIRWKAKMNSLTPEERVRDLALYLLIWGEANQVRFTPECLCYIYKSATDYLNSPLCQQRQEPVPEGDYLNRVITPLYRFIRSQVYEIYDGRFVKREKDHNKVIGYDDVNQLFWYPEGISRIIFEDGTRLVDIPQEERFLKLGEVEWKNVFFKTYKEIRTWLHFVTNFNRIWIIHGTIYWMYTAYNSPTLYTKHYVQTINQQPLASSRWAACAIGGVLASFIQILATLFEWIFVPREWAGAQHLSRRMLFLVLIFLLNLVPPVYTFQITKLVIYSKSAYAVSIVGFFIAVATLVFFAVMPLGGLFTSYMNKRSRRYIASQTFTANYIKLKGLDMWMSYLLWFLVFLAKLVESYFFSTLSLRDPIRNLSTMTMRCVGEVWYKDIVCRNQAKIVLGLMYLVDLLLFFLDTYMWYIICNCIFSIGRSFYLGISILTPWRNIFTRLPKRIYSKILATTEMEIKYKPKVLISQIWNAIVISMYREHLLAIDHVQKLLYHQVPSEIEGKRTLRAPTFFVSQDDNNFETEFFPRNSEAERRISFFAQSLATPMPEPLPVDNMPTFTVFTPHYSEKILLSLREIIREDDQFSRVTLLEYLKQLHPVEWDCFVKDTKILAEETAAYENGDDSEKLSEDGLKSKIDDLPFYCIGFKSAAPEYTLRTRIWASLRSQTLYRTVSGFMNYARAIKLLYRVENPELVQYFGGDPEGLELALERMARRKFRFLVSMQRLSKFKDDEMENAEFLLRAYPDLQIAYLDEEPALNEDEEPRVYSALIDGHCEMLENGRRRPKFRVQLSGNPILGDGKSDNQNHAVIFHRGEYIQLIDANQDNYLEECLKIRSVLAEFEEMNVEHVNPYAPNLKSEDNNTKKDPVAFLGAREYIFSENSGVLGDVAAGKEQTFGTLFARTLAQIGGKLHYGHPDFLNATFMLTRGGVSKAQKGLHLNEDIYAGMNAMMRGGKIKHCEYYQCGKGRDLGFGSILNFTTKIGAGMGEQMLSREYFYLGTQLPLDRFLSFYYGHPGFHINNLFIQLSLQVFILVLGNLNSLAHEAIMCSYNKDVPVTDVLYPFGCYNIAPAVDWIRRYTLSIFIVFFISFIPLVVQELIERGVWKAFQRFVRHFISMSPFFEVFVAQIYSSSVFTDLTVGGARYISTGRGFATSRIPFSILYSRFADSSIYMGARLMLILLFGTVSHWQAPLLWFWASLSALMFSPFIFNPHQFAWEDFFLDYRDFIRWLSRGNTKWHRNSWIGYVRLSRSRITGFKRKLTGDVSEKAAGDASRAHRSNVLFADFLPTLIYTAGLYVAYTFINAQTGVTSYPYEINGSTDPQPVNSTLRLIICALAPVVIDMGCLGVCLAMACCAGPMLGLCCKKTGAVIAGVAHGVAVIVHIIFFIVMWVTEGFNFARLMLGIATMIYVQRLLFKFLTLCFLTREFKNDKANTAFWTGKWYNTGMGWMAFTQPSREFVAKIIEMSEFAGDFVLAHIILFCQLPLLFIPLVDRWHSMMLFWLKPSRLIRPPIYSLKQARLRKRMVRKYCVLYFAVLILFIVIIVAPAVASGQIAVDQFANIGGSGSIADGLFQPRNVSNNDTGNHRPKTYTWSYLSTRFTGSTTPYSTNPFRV
T1 sequence (O42825 whole entry partner): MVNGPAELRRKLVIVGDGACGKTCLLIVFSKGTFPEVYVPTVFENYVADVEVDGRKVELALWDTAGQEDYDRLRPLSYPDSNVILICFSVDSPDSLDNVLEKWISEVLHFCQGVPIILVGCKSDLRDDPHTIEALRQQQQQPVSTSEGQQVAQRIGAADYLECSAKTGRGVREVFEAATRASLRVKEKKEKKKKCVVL

Compound	IC50
CC(=O)O[C@@H]1C[C@@]23COC[C@](C)([C@@H]2CC[C@H]2C3=CC(=O)[C@@]3(C)[C@H](C(=O)O)[C@@](C)([C@H](C)C(C)C)CC[C@]23C)[C@H]1OCC(C)NCc1ccc(CO)o1 (stereo partly drawn) [Example 71, (1S, 2R, 3R, 4aR, 6aS, 7R, 8R, 10aR, 10bR, 12aR)-3-(acetyloxy)-2-{2-[(5-hydroxymethylfuran-2-ylmethyl)-amino]-propoxy}-8-[(1R)-1,2-dimethylpropyl]-1,6a,8,10a-tetramethyl-6-oxo-1,3,4,6,6a,7,8,9,10,10a,10b,11, 12,12a-tetradecahydro-2H-1,4a-(methanooxymethano)chrysene-7-carboxylic acid]	0.343 µM
CCCN(CCC)C(CC)COC1C(OC(C)=O)CC23COCC1(C)C2CCC1C3=CC(=O)C2(C)C(C(=O)O)C(C)(C(C)C(C)C)CCC12C [Example 81, (1S, 2R, 3R, 4aR, 6aS, 7R, 8R, 10aR, 10bR, 12aR)-3-(acetyloxy)-2-(2-dipropylaminobutoxy)-8-[(1R)-1,2-dimethylpropyl]-1,6a,8, 10a-tetramethyl-6-oxo-1,3,4,6,6a,7,8,9,10,10a, 10b,11,12,12a-tetra decahydro-2H-1,4a-(methanooxymethano) chrysene-7-carboxylic acid]	0.497 µM
CC(=O)O[C@@H]1C[C@@]23COC[C@](C)([C@@H]2CC[C@H]2C3=CC(=O)[C@@]3(C)[C@H](C(=O)O)[C@@](C)([C@H](C)C(C)C)CC[C@]23C)[C@H]1OCC(C(C)C)N1CCCCC1 (stereo partly drawn) [Example 89, (1S, 2R, 3R, 4aR, 6aS, 7R, 8R, 10aR, 10bR, 12aR)-3-(acetyloxy)-2-(3-methyl-2-piperidin-1-ylbutoxy)-8-[(1R)-1,2-dimethylpropyl]-1,6a,8, 10a-tetramethyl-6-oxo-1,3,4,6,6a,7,8,9,10,10a, 10b,11,12,12a-tetra decahydro-2H-1,4a-(methanooxymethano) chrysene-7-carboxylic acid]	0.166 µM
CCC(C)(CO[C@H]1[C@H](OC(C)=O)C[C@@]23COC[C@]1(C)[C@@H]2CC[C@H]1C3=CC(=O)[C@@]2(C)[C@H](C(=O)O)[C@@](C)([C@H](C)C(C)C)CC[C@]12C)N(C)C (stereo partly drawn) [Example 128, (1S, 2R, 3R, 4aR, 6aS, 7R, 8R, 10aR, 10bR, 12aR)-3-(acetyloxy)-2-(2-dimethylamino-2-methylbutyloxy)-8-[(1R)-1,2-dimethylpropyl]-1,6a,8,10a-tetramethyl-6-oxo-1,3,4,6,6a,7,8,9,10, 10a,10b,11,12,12a-tetradecahydro-2H-1,4a-(methanooxymethano)chrysene-7-carboxylic acid]	0.0912 µM
CC(=O)O[C@@H]1C[C@@]23COC[C@@](C)([C@@H]2CC[C@H]2C3=CC(=O)[C@@]3(C)[C@H](C(=O)O)[C@@](C)([C@H](C)C(C)C)CC[C@]23C)[C@H]1OC[C@@](C)(N)C(C)C [Example 148, (1S,2R,3R,4aR,6aS,7R,8R,10aR,10bR,12aR)-3-acetoxy-2-[[(2S)-2-amino-2,3-dimethylbutyl]oxy]-8-[(1R)-1,2-dimethylpropyl]-1,6a,8,10a-tetramethyl-6-oxo-1,3,4,6,6a,7,8,9,10,10a,10b,11,12,12a-tetradecahydro-2H-1,4a-(methanooxymethano)chrysene-7-carboxylic acid]	0.0202 µM
CN[C@](C)(CO[C@H]1[C@H](OC(C)=O)C[C@@]23COC[C@@]1(C)[C@@H]2CC[C@H]1C3=CC(=O)[C@@]2(C)[C@H](C(=O)O)[C@@](C)([C@H](C)C(C)C)CC[C@]12C)C(C)C [Example 149, (1S,2R,3R,4aR,6aS,7R,8R,10aR,10bR,12aR)-3-(acetyloxy)-2-[(2S)-2-methylamino-2,3-dimethylbutyloxy]-8-[(1R)-1,2-dimethylpropyl]-1,6a,8,10a-tetramethyl-6-oxo-1,3,4,6,6a,7,8,9,10,10a,10b,11,12,12a-tetradecahydro-2H-1,4a-(methanooxymethano)chrysene-7-carboxylic acid]	0.0198 µM
CC(=O)O[C@@H]1C[C@@]23COC[C@@](C)([C@@H]2CC[C@H]2C3=CC(=O)[C@@]3(C)[C@H](C(=O)O)[C@@](C)([C@H](C)C(C)C)CC[C@]23C)[C@H]1OC[C@](C)(C(C)C)N(C)C [Example 150, (1S,2R,3R,4aR,6aS,7R,8R,10aR,10bR,12aR)-3-(acetyloxy)-2-[(2S)-2-dimethylamino-2,3-dimethylbutyloxy]-8-[(1R)-1,2-dimethylpropyl]-1,6a,8,10a-tetramethyl-6-oxo-1,3,4,6,6a,7,8,9,10,10a,10b,11,12,12a-tetradecahydro-2H-1,4a-(methanooxymethano)chrysene-7-carboxylic acid]	0.0208 µM

Other lines, results leading:

IC50	Compound
0.161 µM	COCC(CO[C@H]1[C@H](OC(C)=O)C[C@@]23COC[C@]1(C)[C@@H]2CC[C@H]1C3=CC(=O)[C@@]2(C)[C@H](C(=O)O)[C@@](C)([C@H](C)C(C)C)CC[C@]12C)N(C)C (stereo partly drawn) [Example 65, (1S,2R,3R,4aR,6aS,7R,8R,10aR,10bR,12aR)-3-(acetyloxy)-2-(2-dimethylamino-3-methoxypropoxy)-8-[(1R)-1,2-dimethylpropyl]-1,6a,8,10a-tetramethyl-6-oxo-1,3,4,6,6a,7,8,9,10,10a,10b,11,12,12a-tetradecahydro-2H-1,4a-(methanooxymethano)chrysene-7-carboxylic acid]
0.205 µM	CC(=O)O[C@@H]1C[C@@]23COC[C@@](C)([C@@H]2CC[C@H]2C3=CC(=O)[C@@]3(C)[C@H](C(=O)O)[C@@](C)([C@H](C)C(C)C)CC[C@]23C)[C@H]1OCC(CN)CN(C)C (stereo partly drawn) [Example 68, (1S,2R,3R,4aR,6aS,7R,8R,10aR,10bR,12aR)-3-(acetyloxy)-2-(2-aminomethyl-3-dimethylaminopropoxy)-8-[(1R)-1,2-dimethylpropyl]-1,6a,8,10a-tetramethyl-6-oxo-1,3,4,6,6a,7,8,9,10,10a,10b,11,12,12a-tetradecahydro-2H-1,4a-(methanooxymethano)chrysene-7-carboxylic acid]
0.155 µM	CC(=O)O[C@@H]1C[C@@]23COC[C@](C)([C@@H]2CC[C@H]2C3=CC(=O)[C@@]3(C)[C@H](C(=O)O)[C@@](C)([C@H](C)C(C)C)CC[C@]23C)[C@H]1OCCCN [Example 109, (1S, 2R, 3R, 4aR, 6aS, 7R, 8R, 10aR, 10bR, 12aR)-3-(acetyloxy)-2-(3-aminopropoxy)-8-[(1R)-1,2-dimethylpropyl]-1,6a,8,10a-tetramethyl-6-oxo-1,3,4,6,6a,7,8,9, 10,10a,10b,11,12,12a-tetradeca hydro-2H-1,4a-(methanooxymethano) chrysene-7-carboxylic acid]
0.0808 µM	CC(=O)O[C@@H]1C[C@@]23COC[C@@](C)([C@@H]2CC[C@H]2C3=CC(=O)[C@@]3(C)[C@H](C(=O)O)[C@@](C)([C@H](C)C(C)C)CC[C@]23C)[C@H]1OCC(C)(C)N(C)C [Example 114, (1S,2R,3R,4aR,6aS,7R,8R,10aR,10bR,12aR)-3-(acetyloxy)-2-(2-diamino-2-methylpropoxy)-8-[(1R)-1,2-dimethylpropyl]-1,6a,8,10a-tetramethyl-6-oxo-1,3,4,6,6a,7,8,9,10,10a,10b,11,12,12a-tetradecahydro-2H-1,4a-(methanooxymethano)chrysene-7-carboxylic acid]
